# Measurements: paper PMC6199744, “Development of Chemical Proteomics for the Folateome and Analysis of the Kinetoplastid Folateome” (ACS Infectious Diseases, 2018)
# Where “and” joins values, the source holds several entries; their conditions need not be identical. Equal entries are not always repeated. Where two headings read alike, the source gives them in different places.
# Test system: L. major lysate proteins
# Assay: Multitargeted bead mixture chemoproteomics, single concentration competition, proteome-wide
# Assay type: binding
# Settings: for fold change: vehicle control = 1
structure (smiles),measurement,setting,value
"Nc1nc2c(c(=O)[nH]1)N(C=O)C(CNc1ccc(C(=O)N[C@@H](CCC(=O)O)C(=O)O)cc1)CN2 (some centres unmarked) [LEU, leucovorin]",fold change relative to vehicle control,,1.05 and 1.2 and 1.04
same,fold change vs vehicle control,,0.97 and 1.04
same,fold change vs vehicle control,protein CLI00016468.1 KINETOPLASTID MEMBRANE PROTEIN-11,0.87
same,fold change vs vehicle control,"protein LINJ.03.0240 RIBOSOMAL PROTEIN L38, PUTATIVE",0.99
same,fold change vs vehicle control,"protein LINJ.11.0780 40S RIBOSOMAL PROTEIN S21, PUTATIVE",1.06
same,fold change,protein LINJ.11.0960 40S RIBOSOMAL PROTEIN S5,1.08
same,fold change vs vehicle control,"protein LINJ.13.0990 PROTEASOME REGULATORY ATPASE SUBUNIT 2, PUTATIVE",0.99
same,fold change vs vehicle control,"protein LINJ.15.0330 RIBONUCLEOPROTEIN P18, MIT[…], PUTATIVE",1.01
same,fold change,"protein LINJ.19.0090 FIBRILLARIN, PUTATIVE",0.98
same,fold change relative to vehicle control,"protein LINJ.23.0860, 3-KETOACYL-COA THIOLASE, PUTATIVE",1.25
same,fold change relative to vehicle control,"protein LINJ.24.2300, 60S RIBOSOMAL PROTEIN L12, PUTATIVE",1.07
same,fold change vs vehicle control,"protein LINJ.25.2230 SUCCINYL-COA […] SUBUNIT, PUTATIVE",1.12
same,fold change vs vehicle control,"protein LINJ.26.1630 40S RIBOSOMAL PROTEIN S33, PUTATIVE",0.97
same,fold change vs vehicle control,"protein LINJ.28.1100 RIBOSOMAL PROTEIN S20, PUTATIVE",0.97
same,fold change relative to vehicle control,"protein LINJ.28.1940, R[…] A, 51KDA SUBUNIT, PUTATIVE",1.01
same,fold change,"protein LINJ.28.2280 DYNEIN LIGHT CHAIN LC6, FLAGELLAR OUTER ARM, PUTATIVE",0.84
same,fold change,"protein LINJ.28.2870 PROTEIN PHOSPHATASE 4 CATALYTIC SUBUNIT, PUTATIVE",0.86
same,fold change relative to vehicle control,"protein LINJ.31.1600, […] OXIDASE VIII (COX VIII), PUTATIVE",0.98
same,fold change relative to vehicle control,"protein LINJ.33.1730, CYCLOPHILIN 4, PUTATIVE",1.85
same,fold change vs vehicle control,"protein LINJ.34.0670 PROTEASOME REGULATORY NON-ATP-ASE SUBUNIT 11, PUTATIVE,19S PROTEASOME REGULATORY SUBUNIT",0.93
same,fold change vs vehicle control,"protein LINJ.36.0780 PROTEIN KINASE, PUTATIVE,MITOGEN-ACTIVATED PROTEIN KINASE, PUTATIVE",0.84
same,fold change relative to vehicle control,"protein LINJ.36.3960, BASIC TRANSCRIPTION FACTOR 3A, PUTATIVE",2.31
same,fold change relative to vehicle control,"protein LINJ.36.4080, HY[…], CONSERVED",1.26
same,fold change,protein LINJ.36.4180 HS1VU COMPLEX PROTEOLYTIC SUBUNIT-LIKE,0.87
same,fold change vs vehicle control,"protein LINJ.[…] LONG-CHAIN-FATTY-ACID-COA LIGASE, PUTATIVE",1.05
same,fold change,"protein LMJF.01.0570 TRIC[…], PUTATIVE",0.89
same,fold change relative to vehicle control,"protein LMJF.03.0200, DELTA-1-PYRROLINE-5-CARBOXYLATE DEHYDROGENASE, PUTATIVE",1.13
same,fold change,"protein LMJF.03.0230 LONG CHAIN FATTY ACYL COA SYNTHETASE, PUTATIVE",0.93
same,fold change,"protein LMJF.03.0980 ELONGATION INITIATION FACTOR 2 ALPHA SUBUNIT, PUTATIVE",1
same,fold change vs vehicle control,"protein LMJF.04.0630 HY[…], CONSERVED",1.02
same,fold change vs vehicle control,protein LMJF.04.1230 actin,0.94
same,fold change,"protein LMJF.05.0100 PHOSPHOPROTEIN PHOSPHATASE, PUTATIVE",0.74
same,fold change,"protein LMJF.05.0280 PROTEIN TYROSINE PHOSPHATASE, PUTATIVE",0.85
same,fold change,protein LMJF.05.0510 ATPASE ALPHA SUBUNIT,1
same,fold change,protein LMJF.05.1040 STOMATIN-LIKE PROTEIN,0.94
same,fold change,"protein LMJF.06.0650 LANOSTEROL SYNTHASE, PUTATIVE",0.97
same,fold change vs vehicle control,protein LMJF.07.0700 TOPOISOMERASE-RELATED FUNCTION PROTEIN-LIKE PROTEIN,1.01
same,fold change,protein LMJF.07.1000 RNA BINDING PROTEIN-LIKE PROTEIN,1.02
same,fold change relative to vehicle control,"protein LMJF.07.1140, PEPTIDE METHIONINE SULFOXIDE REDUCTASE-LIKE",1.3
same,fold change,"protein LMJF.08.0510 RIBOSE-PHOSPHATE PYROPHOSPHOKINASE, PUTATIVE",0.82
same,fold change vs vehicle control,protein LMJF.08.0550 T[…]-LIKE PROTEIN,1.05
same,fold change relative to vehicle control,"protein LMJF.08.1030, cathepsin L-like protease",1.06
same,fold change vs vehicle control,"protein LMJF.08.1100 HYPOTHETICAL PROTEIN, CONSERVED",0.91
same,fold change vs vehicle control,"protein LMJF.09.1010 HYPOTHETICAL PROTEIN, CONSERVED",0.98
same,fold change relative to vehicle control,"protein LMJF.09.1120, MIT[…] BINDING PROTEIN 2,MRP2, GBP25",1.22
same,fold change vs vehicle control,"protein LMJF.09.1260 HY[…], CONSERVED",1.02
same,fold change,"protein LMJF.10.0210 NUCLEOLAR PROTEIN, PUTATIVE",0.98
same,fold change vs vehicle control,"protein LMJF.10.0310 PROTEIN TRANSPORT PROTEIN SEC23, PUTATIVE",1.08
same,fold change,"protein LMJF.11.0590 3-[…]-COA C[…] SUBUNIT, PUTATIVE",0.98
same,fold change relative to vehicle control,"protein LMJF.11.0630, AMINOPEPTIDASE, PUTATIVE,METALLO-PEPTIDASE, CLAN MF, FAMILY M17",1.23
same,fold change vs vehicle control,"protein LMJF.11.1050 PRETRANSLOCATION PROTEIN, ALPHA SUBUNIT, PUTATIVE,SEC61-LIKE (PRETRANSLOCATION PROCESS) PROTEIN, PUTATIVE",0.89
same,fold change,"protein LMJF.11.1160 PROTEIN TRANSPORT PROTEIN SEC31, PUTATIVE",0.83
same,fold change,"protein LMJF.12.0030 PROTEASOME BETA-1 SUBUNIT, PUTATIVE",0.95
same,fold change vs vehicle control,"protein LMJF.12.0210 […] […]1L8 3, PUTATIVE",1.05
same,fold change relative to vehicle control,"protein LMJF.12.0530, GLUCOSE-6-PHOSPHATE ISOMERASE",1.53
same,fold change,protein LMJF.12.0630 ALANINE AMINOTRANSFERASE,0.86
same,fold change vs vehicle control,"protein LMJF.13.1230 40S RIBOSOMAL PROTEIN S4, PUTATIVE",1.16
same,fold change vs vehicle control,"protein LMJF.14.0310 […] 3 SUBUNIT, PUTATIVE",1.04
same,fold change,"protein LMJF.14.0660 FATTY ACID ELONGASE, PUTATIVE",0.88
same,fold change,"protein LMJF.14.0670 FATTY ACID ELONGASE, PUTATIVE",0.9
same,fold change vs vehicle control,"protein LMJF.14.0680 FATTY ACID ELONGASE, PUTATIVE",1.06
same,fold change,protein LMJF.14.0990 ADP/ATP MITOCHONDRIAL CARRIER-LIKE PROTEIN,0.97
same,fold change vs vehicle control,protein LMJF.14.1160 ENOLASE,1.01
same,fold change,"protein LMJF.14.1440 HYPOTHETICAL PROTEIN, CONSERVED (cytoskeleton associated protein, putative)",0.9
same,fold change,"protein LMJF.15.0040 HYPOTHETICAL PROTEIN, CONSERVED (Possible lysine decarboxylase, putative)",0.89
